The text below walks through data of patent US10150748B2, “Salt or abexinostat, associated crystalline form, a process for their preparation and pharmaceutical compositions containing them” (Pharmacyclics LLC, priority 2013, dated 2018).

The nature of the data set: Hygroscopicity by dynamic vapor sorption (DVS). The following applies: relative humidities from 0% to 90% at 25° C. The class given is physicochemical. The procedure: Hygroscopicity of form I of abexinostat tosylate was assessed using dynamic vapor sorption (DVS) technique. 5 to 10 mg of the drug substance test sample were accurately weighed into a DVS sample pan working at 25° C. under controlled humidity. The mass variation was recorded whilst drying under 0 percent RH (relative humidity) and during two subsequent cycles of increasing and decreasing linear variations of relative humidity in the range 0-90 percent RH at a rate of 10 percent per hour. The relative humidity was maintained constant when it reached either 0 or 90 percent RH until the mass variation was less than 0.002 percent, per minute within a limit of time of 15 h.

With `CN(C)Cc1c(C(=O)NCCOc2ccc(C(=O)NO)cc2)oc2ccccc12.Cc1ccc(S(=O)(=O)O)cc1` [form I of abexinostat tosylate, N-hydroxy-4-{2-[3-(N,N-dimethylaminomethyl)benzofuran-2-ylcarbonylamino]ethoxy}benzamide tosylate], the “increase in weight detected by DVS analysis” value is on record as “lower than 0.5%”.
